The values below come from ChEMBL document CHEMBL3774364, “Synthesis of N-cyano-substituted sulfilimine and sulfoximine derivatives of S0859 and their biological evaluation as sodium bicarbonate co-transport inhibitors” (Medchemcomm, 2015).

The term inhibition denotes the percentage by which the read-out fell short of the control.

For experiment [1], the target named is T1, Sodium bicarbonate cotransporter 3 (Mus musculus) (UniProt Q8BTY2).
T1 sequence (whole entry): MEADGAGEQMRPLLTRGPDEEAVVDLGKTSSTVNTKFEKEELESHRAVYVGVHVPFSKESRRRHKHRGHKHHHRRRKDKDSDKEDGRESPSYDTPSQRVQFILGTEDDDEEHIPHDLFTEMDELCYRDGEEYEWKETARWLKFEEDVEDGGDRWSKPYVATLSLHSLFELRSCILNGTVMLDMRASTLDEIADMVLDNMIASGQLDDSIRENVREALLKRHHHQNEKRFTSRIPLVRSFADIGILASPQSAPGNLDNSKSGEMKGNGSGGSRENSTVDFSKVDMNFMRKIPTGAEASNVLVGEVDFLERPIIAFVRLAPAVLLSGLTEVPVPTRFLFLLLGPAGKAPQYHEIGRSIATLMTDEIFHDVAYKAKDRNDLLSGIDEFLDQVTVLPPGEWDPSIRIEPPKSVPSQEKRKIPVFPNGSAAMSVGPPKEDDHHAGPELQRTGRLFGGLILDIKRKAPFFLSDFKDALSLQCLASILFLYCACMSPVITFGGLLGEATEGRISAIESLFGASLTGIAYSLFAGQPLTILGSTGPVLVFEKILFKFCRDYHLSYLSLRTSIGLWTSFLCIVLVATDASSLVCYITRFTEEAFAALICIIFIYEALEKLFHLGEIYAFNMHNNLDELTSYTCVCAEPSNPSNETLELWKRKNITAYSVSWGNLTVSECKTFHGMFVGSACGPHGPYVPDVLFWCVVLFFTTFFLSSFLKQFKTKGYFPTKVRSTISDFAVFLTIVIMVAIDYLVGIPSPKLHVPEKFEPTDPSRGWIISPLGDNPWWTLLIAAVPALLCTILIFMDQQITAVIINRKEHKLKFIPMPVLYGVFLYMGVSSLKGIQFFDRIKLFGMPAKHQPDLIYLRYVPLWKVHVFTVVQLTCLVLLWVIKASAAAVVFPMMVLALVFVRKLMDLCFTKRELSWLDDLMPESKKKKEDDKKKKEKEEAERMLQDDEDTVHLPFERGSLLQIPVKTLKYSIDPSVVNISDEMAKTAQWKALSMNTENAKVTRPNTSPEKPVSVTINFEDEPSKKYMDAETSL
As to the kind of experiment: Inhibition of NBCn1 in epithelial organoids from mouse ErbB2-overexpressing breast cancer tissue assessed as Na(+) -dependent pHi recovery rate at 30 uM.

Experiment [2] has as its target T2, Sodium bicarbonate cotransporter 3 (Homo sapiens) (UniProt Q9Y6M7).
T2 sequence (whole entry): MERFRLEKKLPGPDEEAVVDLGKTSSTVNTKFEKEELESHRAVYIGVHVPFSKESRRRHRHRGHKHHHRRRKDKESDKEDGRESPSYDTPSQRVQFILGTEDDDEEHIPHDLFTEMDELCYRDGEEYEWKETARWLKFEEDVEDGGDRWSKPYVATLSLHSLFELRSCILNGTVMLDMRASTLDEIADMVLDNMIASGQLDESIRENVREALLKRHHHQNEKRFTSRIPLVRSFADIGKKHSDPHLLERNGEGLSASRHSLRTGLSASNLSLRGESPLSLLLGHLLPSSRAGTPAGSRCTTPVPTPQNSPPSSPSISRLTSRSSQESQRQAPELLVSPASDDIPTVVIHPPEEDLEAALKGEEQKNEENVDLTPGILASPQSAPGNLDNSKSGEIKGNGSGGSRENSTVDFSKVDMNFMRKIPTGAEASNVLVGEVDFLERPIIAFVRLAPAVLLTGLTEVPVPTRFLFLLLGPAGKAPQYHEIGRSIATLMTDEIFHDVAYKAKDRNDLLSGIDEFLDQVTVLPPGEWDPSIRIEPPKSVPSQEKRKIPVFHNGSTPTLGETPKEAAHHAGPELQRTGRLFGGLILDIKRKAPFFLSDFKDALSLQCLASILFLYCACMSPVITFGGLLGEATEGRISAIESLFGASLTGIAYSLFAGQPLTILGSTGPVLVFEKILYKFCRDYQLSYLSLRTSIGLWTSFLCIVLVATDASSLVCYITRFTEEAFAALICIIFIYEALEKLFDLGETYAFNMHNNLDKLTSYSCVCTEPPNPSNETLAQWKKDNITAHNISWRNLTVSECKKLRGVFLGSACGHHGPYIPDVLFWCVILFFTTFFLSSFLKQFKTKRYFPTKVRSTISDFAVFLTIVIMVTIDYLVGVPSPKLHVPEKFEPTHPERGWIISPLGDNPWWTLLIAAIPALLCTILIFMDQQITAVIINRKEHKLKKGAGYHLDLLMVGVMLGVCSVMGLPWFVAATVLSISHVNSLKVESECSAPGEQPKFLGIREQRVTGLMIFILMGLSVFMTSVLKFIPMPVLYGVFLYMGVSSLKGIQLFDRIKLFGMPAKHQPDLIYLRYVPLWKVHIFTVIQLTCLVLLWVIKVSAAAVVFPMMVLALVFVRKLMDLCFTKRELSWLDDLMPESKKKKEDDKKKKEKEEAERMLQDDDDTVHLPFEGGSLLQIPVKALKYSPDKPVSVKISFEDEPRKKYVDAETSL
As to the kind of experiment: Inhibition of NBCn1 in human MCF7 cells assessed as decrease in Na(+) -dependent pHi recovery rate at 30 uM. Format: cell-based.

Activity calls are given as the source filed them. No cut-off for these calls is given here.

As to `Cc1ccc(CN(Cc2ccc(-c3ccccc3S(C)(=O)=NC#N)cc2)C(=O)c2ccccc2Cl)cc1` (stereo unspecified), the inhibition result in experiment [1] and in experiment [2] was “inactive” in each case.
Turning to `Cc1ccc(CN(Cc2ccc(-c3ccccc3S(=O)(=O)NC#N)cc2)C(=O)c2ccccc2Cl)cc1`, in experiment [1], the inhibition entry is “inactive”. The inhibition in experiment [2] came out at 45%.
For `Cc1ccc(CN(Cc2ccc(-c3ccccc3/S(C)=N/C#N)cc2)C(=O)c2ccccc2Cl)cc1` (stereo unspecified), the inhibition result in experiment [1] and in experiment [2] was “inactive” in each case.
